# Test results reported in paper PMC9814792 (Communications Chemistry, 2022).
# Key:
# [1] = Reduction kinetics with 10-fold excess of ascorbic acid by UHPLC; type: physicochemical; details: 10 mM AA; for UHPLC peak integral, reduction: method B
# Description: For stability measurements BSO-OxOAc (1 mM) was dissolved in phosphate buffer (100 mM, pH 7.4). For reduction experiments BSO-OxOAc (2 mM) was dissolved in phosphate buffer (500 mM, pH 7.4). A 20 mM solution of AA in the same buffer was added in a 1:1 ratio. The samples were immediately measured on a Dionex UltiMate 3000 RS UHPLC system equipped with a Waters Acquity UPLC® BEH C18 column (3×50 mm, pore size 1.7 µm), and absorption detection at 230 nm with incubation at 20 °C (Gradients: Method A: 0.0−0.5 min: 5% eluent B in eluent A; 0.5–5.5 min: 5-95% eluent B; 5.5–8.0 min: 95 % eluent B (eluent A = 0.1% formic acid in water, eluent B = 0.1 % formic acid in acetonitrile), method B: 0.0 − 0.5 min: 5% eluent B in eluent A; 0.5–5.5 min: 5-95% eluent B; 5.5–7.1 min: 95 % eluent B (eluent A = 0.1% formic acid in water, eluent B = 0.1 % formic acid in methanol). Data points were taken every 30 min for 6 h and at 24 h and 24.5 h.
# HCT116/OxR cells = assay: 72 h cell viability (MTT) assay; type: cell-based, human
# Description: Absorbance was measured at 450 nm (at 620 nm as reference) using the multimode plate reader Tecan Infinite 200 Pro (Zurich, Switzerland). Cytotoxicity was expressed as IC50 values calculated from full dose-response curves using the 4 parameter nonlinear regression model of GraphPad Prism 8 software (La Jolla, CA, USA).
# F331, BEC, HaCat cells = assay: 72 h cell viability (MTT) assay, non-malignant cell types; type: cell-based, human
# Description: Cells were seeded (3–4 ×10^3 cells/well) in 96-well plates in 100 µL and after 24 h recovery treated with 100 µL of compounds at the indicated concentrations in triplicates. After 72 h drug exposure cell viability was determined by 3-(4,5-dimethylthiazol-2-yl)-2,5-diphenyltetrazolium bromide (MTT)-vitality assay (EZ4U, Biomedica, Vienna, Austria) following the manufacturer’s recommendations, as published. Absorbance was measured at 450 nm (at 620 nm as reference) using the multimode plate reader Tecan Infinite 200 Pro (Zurich, Switzerland). Cytotoxicity was expressed as IC50 values calculated from full dose-response curves using the 4 parameter nonlinear regression model of GraphPad Prism 8 software (La Jolla, CA, USA).
# [2] = system: HCT116 and HCT116/OxR cells; assay: Cellular GSH content (GSH/GSSG-Glo); type: cell-based, human; details: 24 h exposure, single agent
# Description: GSH levels in HCT116 and HCT116/OxR cells (7.5 × 10^4 cells per well in 96-well plates, in triplicate), or in CT26 tumor tissues (25–50 mg/sample) were determined using the luminescence-based detection system GSH/GSSG-Glo^TM assay (Promega, Madison, WI) following the manufacturer’s recommendations. Quantifications are based on the comparison with a GSH standard curve delivered in the assay and normalized to the total protein content of the samples determined by the Micro BCA^TM protein assay kit (Thermo Scientific).
structure (smiles),measurement,setting,value
"CCCCS(=N)(=O)CCC(NC(=O)[O][Pt]1([O]C(C)=O)[O]C(=O)C(=O)[O]1)C(=O)O.NC1CCCCC1N (mixture of isomers) [BSO-OxOAc, (OC-6-34)-Acetato(((1 S)-3-(butylsulfonimidoyl)-1-carboxypropyl)carbamato)((1 R,2 R)-1,2-cyclohexanediamino)oxalatoplatinum(IV)]",t½ reduction kinetics,"[1]; 1 mM complex, 500 mM phosphate buffer pH 7.4, 20 °C",~ 51 h
same,"UHPLC peak integral, reduction","[1]; t=0, 1 mM",11.87 mAU
same,"UHPLC peak integral, reduction","[1]; t=24 h, 1 mM",9.1 mAU
same,IC50,"HCT116/OxR cells; HCT116/OxR, 72 h continuous exposure, read-out: IC50 value (95% confidence interval)",95.5 µM
same,resistance factor,HCT116/OxR cells; IC50 HCT116/OxR divided by IC50 HCT116,2.9
same,activity against non-malignant cell types,"F331, BEC, HaCat cells",widely inactive
same,impact on cellular GSH content,[2],moderately
